# Measurements reported in patent US20020015937A1, “Methods for inactivating viruses” (priority 2000, published 2002).
# B1: RNase: ribonuclease, enzyme that hydrolyzes RNA; RNase A used at 10 μg/ml (protein, UniProt P61823 27-150, looked up)
# Ribonuclease pancreatic: KETAAAKFERQHMDSSTSAASSSNYCNQMMKSRNLTKDRCKPVNTFVHESLADVQAVCSQKNVACKNGQTNCYQSYSTMSITDCRETGSSKYPNCAYKTTQANKHIIVACEGNPYVPVHFDASV
# Key:
# Type in all cases: cell-based
# bacteriophage MS2 [1] = assay: Inactivation of bacteriophage MS2 in human blood plasma by pressure cycling and 1-(2-aminoethyl)aziridine (plaque assay on E. coli)
# SV 40 = assay: Inactivation of SV 40 in human blood plasma by pressure cycling and DNase (plaque assay on primate cells)
# [2] = test system: Feline rhinotrachetis virus; assay: Inactivation of feline rhinotrachetis virus in human blood plasma by pressure and HMT with UV (plaque assay on feline cells Fc3Tg)
# Experimental: The infectivity of the virus suspension is determined by duplicate plaque assays on cultured feline cells, Fc3Tg (ATCC CCL 176) with a methylcellulose overlay. The sample is split into four aliquots and are treated as follows: 1) aliquot 1—no treatment; […] 4) aliquot 4—nothing added and pressurized to 30,000 psi for 10 minutes. All samples are held at a temperature of 25° C. throughout the experiment. After treatment, the plasma is serially diluted, mixed with cultured feline cells and plated on agar.
# [3] = test system: Feline rhinotrachetis virus; assay: Inactivation of feline rhinotrachetis virus in human blood plasma by pressure cycling and S-59 with UV (plaque assay on feline cells)
# bacteriophage MS2 [4] = assay: Inactivation of bacteriophage MS2 in human blood plasma by pressure and RNase (plaque assay on E. coli)
molecule,measurement,setting,value
NCCN1CC1 [1-(2-aminoethyl)aziridine],"reduction in viral titer, combination with pressure cycling versus sum of the reductions of the single treatments","bacteriophage MS2 [1]; 0.007 M 1-(2-aminoethyl)aziridine, 80,000 psi for 10 minutes, 20 cycles, 25° C., human blood plasma, 10^8 pfu per ml MS2",significantly greater reduction in viral titer
same,viral inactivation under pressure cycling at lower concentrations,"bacteriophage MS2 [1]; similar experiments with lower concentrations of 1-(2-aminoethyl)aziridine, with pressure cycling",equivalent viral inactivation with lower concentrations of 1-(2-aminoethyl)aziridine or with shorter incubation time
DNase,"reduction in viral titer, combination with pressure cycling versus sum of the reductions of the single treatments","SV 40; 20 μg/ml DNase I, 90,000 psi for 10 minutes, 25 cycles, 37° C., human blood plasma, 10^8 pfu per ml SV 40",significantly greater reduction in viral titer
same,viral inactivation under pressure cycling at lower concentrations,"SV 40; similar experiments with lower concentrations of DNase, with pressure cycling",equivalent viral inactivation with lower concentrations of DNase or with shorter incubation time
"Cc1oc2c(C)c3oc(=O)cc(C)c3cc2c1CO [HMT, 4′-hydroxymethyl-4,5′,8-trimethylpsoralen]","reduction in viral titer, combination with pressure versus sum of the reductions of the single treatments","[2]; 20 μg/ml HMT, 30,000 psi for 10 minutes, then longwave UV light (320 to 380 nm) 10 minutes, 25° C., human blood plasma, 2×10^7 pfu per ml",significantly greater reduction in viral titer
same,viral inactivation under pressure at lower concentrations,"[2]; similar experiments with lower concentrations of HMT, with pressure",equivalent viral inactivation with lower concentrations
"Cc1oc2c(C)c3oc(=O)cc(C)c3cc2c1COCCN [S-59, 4′-(4-amino-2-oxa)butyl-4,5′,8-trimethylpsoralen]","reduction in viral titer, combination with pressure cycling versus sum of the reductions of the single treatments","[3]; 150 μM S-59, longwave UV light 10 minutes, 90,000 psi for 5 minutes, 24 cycles, then UV ten minutes, 25° C., human blood plasma, 2×10^7 pfu per ml",significantly greater reduction in viral titer
same,viral inactivation under pressure cycling at lower concentrations,"[3]; similar experiments with lower concentrations of S-59, with pressure cycling",equivalent viral inactivation with lower concentrations
B1,"reduction in viral titer, combination with pressure versus sum of the reductions of the single treatments","bacteriophage MS2 [4]; 10 μg/ml RNase A, 25,000 psi for 20 minutes, 37° C., human blood plasma, 10^8 pfu per ml MS2",significantly greater reduction in viral titer
same,viral inactivation under pressure at lower concentrations,"bacteriophage MS2 [4]; similar experiments with lower concentrations of RNase, with pressure",equivalent viral inactivation with lower concentrations of RNase or with shorter incubation time
